# In patent US9399639B2, “Substituted azaindole compounds, salts, pharmaceutical compositions thereof and methods of use” (Calitor Sciences, LLC, priority 2012, dated 2016):
# What was measured:
# Format in all cases: in vitro ADME
# [1] = Compound stability in human liver microsomes; settings: for CLint scaled at 1 μM: pH 7.4, in vivo CLint extrapolated; for half-life at 1 μM: pH 7.4, read-out: Human T1/2
# Experimental: (§1) Human or rat liver microsomes incubations were conducted in duplicate in polypropylene tubes. […] Compounds were dissolved in DMSO and diluted with PBS such that the final concentration of DMSO was 0.05%. The enzymatic reactions were commenced with the addition of protein after a 3 min preincubation and incubated in a water bath open to the air at 37° C. Reactions were terminated at various time points (0, 5, 10, 15, 30, 60 min) by adding equal volume of ice-cold acetonitrile. The samples were stored at −80° C. until LC/MS/MS assays.
# (§2) The concentrations of compounds in the incubation mixtures of human (or rat) liver microsomes were determined by a LC/MS/MS method. The ranges of the linearity in the concentration range were determined for each tested compounds.
# (§3) A parallel incubation was performed using denatured microsomes as the negative control, and reactions were terminated at various time points (for example, 0, 15, 60 min) after incubation at 37° C.
# (§4) Dextromethorphan (70 μM) was selected as the positive control, and reactions were terminated at various time points (0, 5, 10, 15, 30, 60 min) after incubation at 37° C. Both positive and negative control samples were included in each assay to ensure the integrity of the microsomal incubation system.
# (§5) Alternatively, the stability of some of the compounds disclosed herein in human (or rat) liver microsomes were also conducted in the following protocol. The incubations were conducted in duplicate in polypropylene tubes. […] Compounds were dissolved in DMSO and diluted with K-buffer such that the final concentration of DMSO was 0.2%. The enzymatic reactions were commenced with the addition of 15 μL of NADPH (final concentration: 2 mM) after 10 min preincubation and incubated in a 37° C. incubator. Reactions were terminated at various time points (0, 15, 30, 60 min) by adding 135 μL acetonitrile (contain IS). Protein is removed by centrifugation with 4,000 rpm, 10 min.
# (§6) In the above protocol, ketanserin (1 μM) was selected as the positive control, and reactions were terminated at various time points (0, 15, 30, 60 min) after incubation at 37° C. The positive control sample was included in each assay to ensure the integrity of the microsomal incubation system.
# (§7) The concentrations of compounds in liver microsome incubations were plotted as a percentage of the relevant zero time point control for each reaction. The in vivo CLint were extrapolated (ref: Naritomi et al., Prediction of human hepatic clearance from in vivo animal experiments and in vitro metabolic studies with liver microsomes from animals and humans, Drug Metab. Dispos., 2001, 29: 1316-1324.) […]
# [2] = Compound stability in rat liver microsomes; settings: for CLint scaled at 1 μM: pH 7.4, in vivo CLint extrapolated; for half-life at 1 μM: pH 7.4, read-out: Rat T1/2
# Experimental: as §1, §2, §3, §4, §5, §6, §7
# [3] = Stability in human plasma; settings: for Human T1/2: 2 μM; for half-life at 2 μM: read-out: Human T1/2
# Experimental: (§8) Similarly, selected compounds of the invention were also assessed for their stability in human and rat plasma, and the results are listed in Table 3.
# Stability in rat plasma = settings: read-out: Rat T1/2
# Experimental: as §8
smiles,measurement,setting,value
"CCCS(=O)(=O)N(C(=O)OCC)c1ccc(F)c(C(=O)c2c[nH]c3ncc(-c4ccc(Cl)cc4)cc23)c1F [Ex. 1, ethyl 3-(5-(4-chlorophenyl)-1H-pyrrolo[2,3-b]pyridine-3-carbonyl)-2,4-difluorophenyl(propylsulfonyl)carbamate]",CLint scaled at 1 μM,[1],60.2 mL/min/kg
same,half-life at 1 μM,[1],28.9 min
same,CLint scaled at 1 μM,[2],142 mL/min/kg
same,half-life at 1 μM,[2],17.5 min
"CCCS(=O)(=O)N(C(=O)c1ccccc1)c1ccc(F)c(C(=O)c2c[nH]c3ncc(-c4ccc(Cl)cc4)cc23)c1F [Ex. 2, N-(3-(5-(4-chlorophenyl)-1H-pyrrolo[2,3-b]pyridine-3-carbonyl)-2,4-difluorophenyl)-N-(propylsulfonyl)benzamide]",CLint scaled at 1 μM,[1],29.2 mL/min/kg
same,half-life at 1 μM,[1],59.5 min
same,CLint scaled at 1 μM,[2],193 mL/min/kg
same,half-life at 1 μM,[2],12.8 min
"CCCS(=O)(=O)Nc1ccc(F)c(C(=O)c2cn(COC(=O)C(C)(C)C)c3ncc(-c4ccc(Cl)cc4)cc23)c1F [Ex. 7a, (5-(4-chlorophenyl)-3-(2,6-difluoro-3-(propylsulfonamido)benzoyl)-1H-pyrrolo[2,3-b]pyridin-1-yl)methyl pivalate]",Human T1/2,[1]; 1 μM,∞
same,CLint scaled at 1 μM,[2],46.8 mL/min/kg
same,half-life at 1 μM,[2],53.1 min
same,Human T1/2,[3],∞
same,half-life at 2 μM,Stability in rat plasma,68.8 min
"CCCS(=O)(=O)Nc1ccc(F)c(C(=O)c2cn(COC(=O)C(C)C)c3ncc(-c4ccc(Cl)cc4)cc23)c1F [Ex. 9, (5-(4-chlorophenyl)-3-(2,6-difluoro-3-(propylsulfonamido)benzoyl)-1H-pyrrolo[2,3-b]pyridin-1-yl)methyl isobutyrate]",half-life at 2 μM,[3],113 min
same,half-life at 2 μM,Stability in rat plasma,28.6 min
"CCCS(=O)(=O)Nc1ccc(F)c(C(=O)c2cn(C(C)OC(=O)CC)c3ncc(-c4ccc(Cl)cc4)cc23)c1F (stereo not drawn) [Ex. 10, 1-(5-(4-chlorophenyl)-3-(2,6-difluoro-3-(propylsulfonamido)benzoyl)-1H-pyrrolo[2,3-b]pyridin-1-yl)ethyl propionate]",half-life at 2 μM,[3],88.1 min
same,half-life at 2 μM,Stability in rat plasma,55.8 min
"CCCS(=O)(=O)Nc1ccc(F)c(C(=O)c2cn(C(OC(=O)CC)C(C)C)c3ncc(-c4ccc(Cl)cc4)cc23)c1F (stereo not drawn) [Ex. 11, 1-(5-(4-chlorophenyl)-3-(2,6-difluoro-3-(propylsulfonamido)benzoyl)-1H-pyrrolo[2,3-b]pyridin-1-yl)-2-methylpropyl propionate]",half-life at 2 μM,[3],162 min
same,half-life at 2 μM,Stability in rat plasma,49.8 min
"CCCS(=O)(=O)Nc1ccc(F)c(C(=O)c2cn(C(C)OC(=O)C(C)C)c3ncc(-c4ccc(Cl)cc4)cc23)c1F (stereo not drawn) [Ex. 14, 1-(5-(4-chlorophenyl)-3-(2,6-difluoro-3-(propylsulfonamido)benzoyl)-1H-pyrrolo[2,3-b]pyridin-1-yl)ethyl isobutyrate]",CLint scaled at 1 μM,[1],51.7 mL/min/kg
same,half-life at 1 μM,[1],33.6 min
same,half-life at 2 μM,[3],511 min
"CCCS(=O)(=O)Nc1ccc(F)c(C(=O)c2cn(COC(=O)CC)c3ncc(-c4ccc(Cl)cc4)cc23)c1F [Ex. 15, (5-(4-chlorophenyl)-3-(2,6-difluoro-3-(propylsulfonamido)benzoyl)-1H-pyrrolo[2,3-b]pyridin-1-yl)methyl propionate]",half-life at 2 μM,[3],39.6 min
same,half-life at 2 μM,Stability in rat plasma,18.6 min
"CCCS(=O)(=O)Nc1ccc(F)c(C(=O)c2cn(C(OC(=O)C(C)C)C(C)C)c3ncc(-c4ccc(Cl)cc4)cc23)c1F (stereo not drawn) [Ex. 16, 1-(5-(4-chlorophenyl)-3-(2,6-difluoro-3-(propylsulfonamido)benzoyl)-1H-pyrrolo[2,3-b]pyridin-1-yl)-2-methylpropyl isobutyrate]",Human T1/2,[3],∞
same,half-life at 2 μM,Stability in rat plasma,157 min
"CCCS(=O)(=O)Nc1ccc(F)c(C(=O)c2cn(COC(=O)C(N)C(C)C)c3ncc(-c4ccc(Cl)cc4)cc23)c1F.Cl (stereo not drawn) [Ex. 18, (5-(4-chlorophenyl)-3-(2,6-difluoro-3-(propylsulfonamido)benzoyl)-1H-pyrrolo[2,3-b]pyridin-1-yl)methyl 2-amino-3-methylbutanoate hydrochloride]",CLint scaled at 1 μM,[1],5.52 mL/min/kg
same,half-life at 1 μM,[1],78.8 min
same,half-life at 2 μM,[3],6.08 min
same,half-life at 2 μM,Stability in rat plasma,9.61 min
"CCCS(=O)(=O)Nc1ccc(F)c(C(=O)c2cn(COC(=O)CN)c3ncc(-c4ccc(Cl)cc4)cc23)c1F.Cl [Ex. 19, (5-(4-chlorophenyl)-3-(2,6-difluoro-3-(propylsulfonamido)benzoyl)-1H-pyrrolo[2,3-b]pyridin-1-yl)methyl 2-aminoacetate hydrochloride]",half-life at 2 μM,[3],7.47 min
same,half-life at 2 μM,Stability in rat plasma,5.9 min
"CCCS(=O)(=O)Nc1ccc(F)c(C(=O)c2cn(COC(=O)[C@@H](N)C(C)CC)c3ncc(-c4ccc(Cl)cc4)cc23)c1F.Cl (stereo partly drawn) [Ex. 22, (2S)-(5-(4-chlorophenyl)-3-(2,6-difluoro-3-(propylsulfonamido)benzoyl)-1H-pyrrolo[2,3-b]pyridin-1-yl)methyl-2-amino-3-methylpentanoate hydrochloride]",CLint scaled at 1 μM,[1],23.9 mL/min/kg
same,half-life at 1 μM,[1],72.8 min
same,CLint scaled at 1 μM,[2],535 mL/min/kg
same,half-life at 1 μM,[2],4.6 min
same,half-life at 2 μM,[3],6.81 min
same,half-life at 2 μM,Stability in rat plasma,15.2 min
"CCCS(=O)(=O)Nc1ccc(F)c(C(=O)c2cn(COC(=O)[C@@H](N)CC(C)C)c3ncc(-c4ccc(Cl)cc4)cc23)c1F.Cl [Ex. 23, (S)-(5-(4-chlorophenyl)-3-(2,6-difluoro-3-(propylsulfonamido)benzoyl)-1H-pyrrolo[2,3-b]pyridin-1-yl)methyl 2-amino-4-methylpentanoate hydrochloride]",CLint scaled at 1 μM,[1],15.4 mL/min/kg
same,half-life at 1 μM,[1],113 min
same,CLint scaled at 1 μM,[2],429 mL/min/kg
same,half-life at 1 μM,[2],5.8 min
same,half-life at 2 μM,[3],3.06 min
same,half-life at 2 μM,Stability in rat plasma,3.42 min
"CCCS(=O)(=O)Nc1ccc(F)c(C(=O)c2cn(COC(=O)OCC)c3ncc(-c4ccc(Cl)cc4)cc23)c1F [Ex. 26, (5-(4-chlorophenyl)-3-(2,6-difluoro-3-(propylsulfonamido)benzoyl)-1H-pyrrolo[2,3-b]pyridin-1-yl)methyl ethyl carbonate]",half-life at 2 μM,[3],81.6 min
"CCCS(=O)(=O)Nc1ccc(F)c(C(=O)c2cn(COC(=O)OC(C)C)c3ncc(-c4ccc(Cl)cc4)cc23)c1F [Ex. 27, (5-(4-chlorophenyl)-3-(2,6-difluoro-3-(propylsulfonamido)benzoyl)-1H-pyrrolo[2,3-b]pyridin-1-yl)methyl isopropyl carbonate]",half-life at 2 μM,[3],79.6 min
same,half-life at 2 μM,Stability in rat plasma,55.9 min
"CCCS(=O)(=O)Nc1ccc(F)c(C(=O)c2cn(C(C)OC(=O)OCC)c3ncc(-c4ccc(Cl)cc4)cc23)c1F (stereo not drawn) [Ex. 28, 1-(5-(4-chlorophenyl)-3-(2,6-difluoro-3-(propylsulfonamido)benzoyl)-1H-pyrrolo[2,3-b]pyridin-1-yl)ethyl ethyl carbonate]",half-life at 2 μM,[3],57.9 min
same,half-life at 2 μM,Stability in rat plasma,49.5 min
"CCCS(=O)(=O)Nc1ccc(F)c(C(=O)c2cn(C(C)OC(=O)OC(C)C)c3ncc(-c4ccc(Cl)cc4)cc23)c1F (stereo not drawn) [Ex. 30, 1-(5-(4-chlorophenyl)-3-(2,6-difluoro-3-(propylsulfonamido)benzoyl)-1H-pyrrolo[2,3-b]pyridin-1-yl)ethyl isopropyl carbonate]",Human T1/2,[3],∞
same,half-life at 2 μM,Stability in rat plasma,56.3 min
